{"source": "paper PMC5862990", "about": "“Dynamical origins of heat capacity changes in enzyme-catalysed reactions” (Nature Communications, 2018)", "molecular_target": "T1, MalL (Bacillus subtilis, UniProt O06994)", "T1 construct": "wild-type, recombinant, monomeric", "T1 sequence (O06994 whole entry)": "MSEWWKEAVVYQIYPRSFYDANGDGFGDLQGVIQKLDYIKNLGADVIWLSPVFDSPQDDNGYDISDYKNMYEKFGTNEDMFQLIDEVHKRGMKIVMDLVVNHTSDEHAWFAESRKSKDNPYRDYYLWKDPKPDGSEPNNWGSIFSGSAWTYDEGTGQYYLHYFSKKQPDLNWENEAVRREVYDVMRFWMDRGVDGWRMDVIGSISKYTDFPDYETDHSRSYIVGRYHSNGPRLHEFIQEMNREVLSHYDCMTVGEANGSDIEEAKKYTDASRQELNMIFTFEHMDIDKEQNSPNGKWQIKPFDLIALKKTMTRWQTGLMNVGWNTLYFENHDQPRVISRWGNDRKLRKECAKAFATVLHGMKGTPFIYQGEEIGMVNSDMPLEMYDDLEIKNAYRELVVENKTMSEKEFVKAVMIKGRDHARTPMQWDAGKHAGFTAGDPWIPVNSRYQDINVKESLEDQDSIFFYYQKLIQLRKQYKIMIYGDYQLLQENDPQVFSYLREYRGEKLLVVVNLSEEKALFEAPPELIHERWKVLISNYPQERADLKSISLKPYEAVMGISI", "experiment": "X-ray co-crystal structure", "type": "binding", "details": "co-crystallised with 0.5 mM ligand, 18 °C; active site; transition-state analogue", "data": [{"smiles": "OC[C@H]1NC[C@H](O)[C@@H](O)[C@@H]1O", "note": "[1-deoxynojirimycin]", "values": [{"measurement": "X-ray co-crystal structure", "value": "Coordinates and structure factors for MalL co-crystallised with 1-deoxynojirimycin are deposited in the PDB"}]}]}
